US4472305A, “Hexapeptide amides” (Sterling Drug Inc., priority 1983, dated 1984)
Non-standard residues stand in square brackets, D forms with d. Residues, ends and D or L forms follow the SMILES beside them. Phe(4-Cl) = N[C@@H](Cc1ccc(Cl)cc1)C(=O)O; dNMeW = CN[C@H](Cc1c[nH]c2ccccc12)C(=O)O; Gly(NCH2CH2Ph) = O=C(O)CNCCc1ccccc1; NMeF = CN[C@@H](Cc1ccccc1)C(=O)O; 4Pal = N[C@@H](Cc1ccncc1)C(=O)O; Dap(Me2) = CN(C)C[C@H](N)C(=O)O; d4Pal = N[C@H](Cc1ccncc1)C(=O)O; dPhg = N[C@@H](C(=O)O)c1ccccc1; NMeL = CN[C@@H](CC(C)C)C(=O)O; NMeNle = CCCC[C@H](NC)C(=O)O; Nle = CCCC[C@H](N)C(=O)O; Nphe = O=C(O)CNCc1ccccc1; Dap = NC[C@H](N)C(=O)O; Sar = CNCC(=O)O

What was measured:
[1] = molecular target: T1, SP receptor (Rattus norvegicus, UniProt P14600); test: 3H-SP binding test, rat submaxillary gland tissue; conditions: for effect on 3H-SP binding (specificity): rat submaxillary gland or brain tissue preparation, tissue not specified; for inhibition at 30 µM: read-out: 3H-SP Binding % Inhibition
T1 construct: from tissue; host or cells: rat submaxillary gland (crude tissue suspension)
T1 sequence (P14600 whole entry): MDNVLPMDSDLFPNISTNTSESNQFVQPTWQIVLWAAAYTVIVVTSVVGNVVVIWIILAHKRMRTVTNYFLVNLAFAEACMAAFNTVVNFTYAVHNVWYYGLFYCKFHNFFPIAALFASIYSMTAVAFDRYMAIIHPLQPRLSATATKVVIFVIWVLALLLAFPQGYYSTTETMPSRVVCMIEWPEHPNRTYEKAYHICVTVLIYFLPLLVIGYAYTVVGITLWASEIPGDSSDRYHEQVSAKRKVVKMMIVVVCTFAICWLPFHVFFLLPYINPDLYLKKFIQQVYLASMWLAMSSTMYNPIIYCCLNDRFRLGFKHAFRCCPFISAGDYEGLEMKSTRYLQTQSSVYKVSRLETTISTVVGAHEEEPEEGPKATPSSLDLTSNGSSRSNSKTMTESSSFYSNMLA
Method: (§1) Crude rat submaxillary gland or brain tissue is suspended in buffer containing protease inhibitors (and calcium ions and magnesium ions in the case of brain tissue) and incubated under nitrogen atmosphere with ^3 H-SP and test compound. The bound SP is then separated from free SP by filtration and quantitated by liquid scintillation spectroscopy. This test meets the criteria of reversibility, saturability, sensitivity to known SP agonists and antagonists, and specificity for an SP receptor binding assay.
(§2) With regard to reversibility, addition of unlabelled SP causes a gradual decrease in bound ^3 H-SP, showing that SP is not irreversibly bound to the receptors in the tissue. With regard to saturability, the amount of bound ^3 H-SP in the preparation increases in direct proportion to the concentration of ^3 H-SP added until a saturation point is reached. […] With regard to sensitivity, known SP agonists and antagonists inhibit ^3 H-SP binding.
(§3) The results are expressed either as percent inhibition at a concentration of 30 micromoles per liter (μM) or as an IC50 calculated as the concentration in micromoles per liter.
(§4) The ^3 H-SP binding test results were obtained using rat submaxillary gland tissue for Examples 1-34 and rat brain tissue for Examples 35-42.

[2] = tested on: longitudinal muscle of guinea pig terminal ileum; test: Guinea pig ileum test (SP agonist and antagonist effect); type: cell-based; conditions: for Guinea Pig Ileum % Agonism (potency relative to SP): contraction of ileum longitudinal muscle strips, relative molar potency vs SP
Method: Strips of longitudinal muscle derived from terminal ileum of adult male guinea pigs (Charles River, 400-600 g.) are mounted in 5-ml. organ baths containing oxygenated Krebs solution containing 1 μM each of atropine and pyrilamine maintained at 30-33 C. and connected to isometric transducers. Following tissue equilibration and repeated washing (45-60 min.), SP or an appropriate reference agonist is added cumulatively to the bath and contractions of the tissue are recorded. The bath is washed thoroughly and 30-45 min. is allowed to elapse before construction of a second reference agonist curve to assure reproducibility of the responses. Test compounds are similarly evaluated for agonist activity up to a maximum concentration of 10-100 μM. […] When appropriate, relative molar potency ratios are calculated (EC50 reference/ED50 test drug). […] The effects of several concentrations of test antagonist, pooled across separate experiments, provide dose-ratio (EC50 shift) data for a standard Schild plot analysis, with computation of the pA2.

[3] = molecular target: T1, SP receptor; test: 3H-SP binding test, rat brain tissue; conditions: rat brain tissue (Examples 35-42); for inhibition at 30 µM: 30 μM test compound
Method: as §1, §2, §3, §4

[4] = 30 μM test compound, rat submaxillary gland tissue (Examples 1-34)

| inhibition at 30 µM [1, 4] | Compound | Guinea Pig Ileum % Agonism (potency relative to SP) [2] | also measured |
| --- | --- | --- | --- |
| 40% | CSCC[C@H](NC(=O)[C@H](CC(C)C)NC(=O)[C@@H](Cc1ccccc1)NC(=O)CN(Cc1ccccc1)C(=O)[C@@H](Cc1ccccc1)NC(=O)[C@@H]1CCCN1)C(N)=O [Example 30, HPro-DPhe-Bgl-DPhe-Leu-MetNH2] (H-P[dF][Nphe][dF]LM-NH2) | – | – |
| 20% | CSCC[C@H](NC(=O)[C@H](CC(C)C)NC(=O)[C@@H](Cc1ccncc1)NC(=O)[C@H](Cc1ccccc1)NC(=O)[C@H](Cc1ccccc1)NC(=O)[C@@H]1CCCN1)C(N)=O [Example 20] (H-PFF[d4Pal]LM-NH2) | – | – |
| 15% | CSCC[C@H](NC(=O)[C@H](CC(C)C)NC(=O)[C@@H](CCCCN)NC(=O)[C@H](Cc1ccccc1)NC(=O)[C@@H](Cc1c[nH]c2ccccc12)NC(=O)[C@@H]1CCCN1)C(N)=O [Example 33, HPro-DTrp-Phe-DLys-Leu-MetNH2] (H-P[dW]F[dK]LM-NH2) | – | – |
| 20% | CSCC[C@H](NC(=O)[C@H](CC(C)C)NC(=O)[C@@H](CCCNC(=N)N)NC(=O)[C@H](Cc1ccccc1)NC(=O)[C@@H](Cc1c[nH]c2ccccc12)NC(=O)[C@@H]1CCCN1)C(N)=O [Example 34, HPro-DTrp-Phe-DArg-Leu-MetNH2] (H-P[dW]F[dR]LM-NH2) | 5.2% | – |
| 40% | CSCC[C@H](NC(=O)[C@H](CC(C)C)NC(=O)[C@@H](Cc1ccccc1)NC(=O)CN(CCc1ccccc1)C(=O)[C@@H](Cc1ccccc1)NC(=O)[C@@H]1CCCN1)C(N)=O [Example 32, HPro-DPhe-Pgl-DPhe-Leu-MetNH2] (H-P[dF][Gly(NCH2CH2Ph)][dF]LM-NH2) | – | – |
| 42% | CSCC[C@H](NC(=O)[C@H](CC(C)C)NC(=O)[C@H](Cc1ccncc1)NC(=O)[C@H](Cc1ccccc1)NC(=O)[C@H](Cc1ccccc1)NC(=O)[C@@H]1CCCN1)C(N)=O [Example 19] (H-PFF[4Pal]LM-NH2) | – | – |

Continued, compound first:

| Compound | inhibition at 30 µM [1, 4] | Guinea Pig Ileum % Agonism (potency relative to SP) [2] | also measured |
| --- | --- | --- | --- |
| COc1cc(CNC(=O)CCCC/C=C/C(C)C)ccc1O [capsaicin, reference compound] | – | – | effect on 3H-SP binding (specificity) [1]: do not affect |
| CSCC[C@H](NC(=O)[C@H](CC(C)C)N1CC[C@H](NC(=O)[C@H](Cc2ccccc2)NC(=O)[C@H](Cc2ccccc2)NC(=O)[C@@H]2CCCN2)C1=O)C(N)=O [Example 14, HPro-Phe-Phe-CabLeu-MetNH2] | 10% | – | – |
| CSCC[C@H](NC(=O)[C@@H](CC(C)C)NC(=O)CNC(=O)[C@H](Cc1ccccc1)NC(=O)[C@H](Cc1ccccc1)NC(=O)[C@@H]1CCCN1)C(N)=O [Example 4, HPro-Phe-Phe-Gly-DLeu-MetNH2] (H-PFFG[dL]M-NH2) | 17% | 0.3% | – |
| CSCC[C@H](NC(=O)[C@H](CC(C)C)NC(=O)[C@@H](C)NC(=O)[C@H](Cc1ccccc1)NC(=O)[C@H](Cc1ccccc1)NC(=O)[C@@H]1CCCN1)C(N)=O [Example 1, HPro-Phe-Phe-DAla-Leu-MetNH2] (H-PFF[dA]LM-NH2) | 17% | 0.7% | – |
| CSCC[C@H](NC(=O)[C@H](CC(C)C)NC(=O)[C@@H](Cc1c[nH]c2ccccc12)N(C)C(=O)[C@H](Cc1ccccc1)NC(=O)[C@@H](Cc1c[nH]c2ccccc12)NC(=O)[C@@H]1CCCN1)C(N)=O [Example 41, HPro-DTrp-Phe-MeDTrp-Leu-MetNH2] (H-P[dW]F[dNMeW]LM-NH2) | – | – | inhibition at 30 µM [3]: 79%; IC50 [3]: 13.3 µM |
| CSCC[C@H](NC(=O)[C@H](CC(C)C)NC(=O)CNC(=O)[C@H](Cc1ccc(Cl)cc1)NC(=O)[C@H](Cc1ccc(Cl)cc1)NC(=O)[C@@H]1CCCN1)C(N)=O [Example 37, HPro-Pcp-Pcp-Gly-Leu-MetNH2] (H-P[Phe(4-Cl)][Phe(4-Cl)]GLM-NH2) | – | – | inhibition at 30 µM [3]: 62% |
| CSCC[C@H](NC(=O)[C@H](CC(C)C)NC(=O)[C@H](CCC(=O)O)NC(=O)[C@H](Cc1ccccc1)NC(=O)[C@H](Cc1ccccc1)NC(=O)[C@@H]1CCCN1)C(N)=O [Example 15, HPro-Phe-Phe-Glu-Leu-MetNH2] (H-PFFELM-NH2) | 10% | 0.004% | – |
| CCCC[C@@H](C(N)=O)N(C)C(=O)[C@H](CC(C)C)NC(=O)[C@@H](Cc1c[nH]c2ccccc12)NC(=O)[C@H](Cc1ccccc1)NC(=O)[C@@H](Cc1c[nH]c2ccccc12)NC(=O)[C@@H]1CCCN1 [Example 42, HPro-DTrp-Phe-DTrp-Leu-MeNleNH2] (H-P[dW]F[dW]L[NMeNle]-NH2) | – | – | inhibition at 30 µM [3]: 81% |
| CSCC[C@H](NC(=O)[C@H](CC(C)C)NC(=O)CNC(=O)[C@H](Cc1ccccc1)N(C)C(=O)[C@H](Cc1ccccc1)NC(=O)[C@@H]1CCCN1)C(N)=O [Example 2, HPro-Phe-MePhe-Gly-Leu-MetNH2] (H-PF[NMeF]GLM-NH2) | 25% | – | – |
| CSCC[C@H](NC(=O)[C@H](CC(C)C)N(C)C(=O)CNC(=O)[C@H](Cc1ccccc1)NC(=O)[C@H](Cc1ccccc1)NC(=O)[C@@H]1CCCN1)C(N)=O [Example 5, HPro-Phe-Phe-Gly-MeLeu-MetNH2] (H-PFFG[NMeL]M-NH2) | 75% | – | – |
| CSCC[C@H](NC(=O)[C@H](CC(C)C)NC(=O)[C@@H](Cc1ccccc1)NC(=O)[C@H](Cc1ccccc1)NC(=O)[C@H](NC(=O)[C@@H]1CCCN1)c1ccccc1)C(N)=O [Example 28, HPro-DPhg-Phe-DPhe-Leu-MetNH2] (H-P[dPhg]F[dF]LM-NH2) | – | – | inhibition at 30 µM [1]: 33% |
| CSCC[C@H](NC(=O)[C@H](CC(C)C)NC(=O)CNC(=O)[C@H](Cc1ccccc1)NC(=O)[C@H](Cc1ccccc1)NC(=O)[C@H]1CCCN1)C(N)=O [Example 10, HDPro-Phe-Phe-Gly-Leu-MetNH2] (H-[dP]FFGLM-NH2) | 65% | 10% | – |
| CSCC[C@H](NC(=O)[C@H](CC(C)C)NC(=O)CN(C)C(=O)[C@H](Cc1ccccc1)N(C)C(=O)[C@H](Cc1ccccc1)NC(=O)[C@@H]1CCCN1)C(N)=O [Example 11, HPro-Phe-MePhe-Sar-Leu-MetNH2] (H-PF[NMeF][Sar]LM-NH2) | 11% | – | – |
| HPro-Phe-D,LBpa-Gly-Leu-MetNH2 [Example 18] | – | 33% | 3H-SP Binding % Inhibition [1, 4]: 90% |
| CSCC[C@H](NC(=O)[C@H](CC(C)C)NC(=O)CNC(=O)[C@@H](Cc1ccccc1)NC(=O)[C@H](Cc1ccccc1)NC(=O)[C@@H]1CCCN1)C(N)=O [Example 7, HPro-Phe-DPhe-Gly-Leu-MetNH2] (H-PF[dF]GLM-NH2) | 48% | 0.7% | – |
| CSCC[C@H](NC(=O)[C@H](CC(C)C)NC(=O)CNC(=O)[C@H](Cc1ccccc1)NC(=O)[C@@H](Cc1ccccc1)NC(=O)[C@@H]1CCCN1)C(N)=O [Example 9, HPro-DPhe-Phe-Gly-Leu-MetNH2] (H-P[dF]FGLM-NH2) | 22% | 0.0009% | Guinea Pig Ileum pA2 [2]: 5.6 |
| CSCC[C@H](NC(=O)[C@H](CC(C)C)NC(=O)CN(C)C(=O)[C@H](Cc1ccccc1)NC(=O)[C@H](Cc1ccccc1)NC(=O)[C@@H]1CCCN1)C(N)=O [Example 3, HPro-Phe-Phe-Sar-Leu-MetNH2] (H-PFF[Sar]LM-NH2) | 93% | 27% | – |
| CSCC[C@H](NC(=O)[C@H](CC(C)C)NC(=O)[C@H](CN)NC(=O)[C@H](Cc1ccccc1)NC(=O)[C@H](Cc1ccccc1)NC(=O)[C@@H]1CCCN1)C(N)=O [Example 13, HPro-Phe-Phe-LDap-Leu-MetNH2] (H-PFF[Dap]LM-NH2) | 15% | – | – |
| CSCC[C@@H](NC(=O)[C@H](CC(C)C)NC(=O)CNC(=O)[C@H](Cc1ccccc1)NC(=O)[C@H](Cc1ccccc1)NC(=O)[C@@H]1CCCN1)C(N)=O [Example 6, HPro-Phe-Phe-Gly-Leu-DMetNH2] (H-PFFGL[dM]-NH2) | 8% | 4% | – |
| NCC(CC(=O)O)c1ccc(Cl)cc1 (centres unmarked) [baclofen, reference compound] | – | – | effect on 3H-SP binding (specificity) [1]: do not affect |
| CSCC[C@H](NC(=O)[C@H](CN(C)C)NC(=O)CNC(=O)[C@H](Cc1ccccc1)NC(=O)[C@H](Cc1ccccc1)NC(=O)[C@@H]1CCCN1)C(N)=O [Example 16, HPro-Phe-Phe-Gly-Gal-MetNH2] (H-PFFG[Dap(Me2)]M-NH2) | 13% | – | – |
| CCCC[C@H](NC(=O)[C@H](CC(C)C)NC(=O)CNC(=O)[C@H](Cc1ccccc1)NC(=O)[C@H](Cc1ccccc1)NC(=O)[C@@H]1CCCN1)C(N)=O [Example 8, HPro-Phe-Phe-Gly-Leu-NleNH2] (H-PFFGL[Nle]-NH2) | 49% | 3% | – |
